Here are results for five molecules from ChEMBL document CHEMBL4673341, “Anti-prion and α-Synuclein Aggregation Inhibitory Sterols from the Sponge Lamellodysidea cf. chlorea” (J Nat Prod, 2020).

One assay has as its system Saccharomyces cerevisiae. Briefly: Anti-prion activity against [URE3] protein in Saccharomyces cerevisiae SB34 at 100 uM measured after 96 hrs by fluorimetry analysis.
For assay [1], the target named is Alpha-synuclein (Homo sapiens) (UniProt P37840). Briefly: Binding affinity to human alpha-synuclein aggregation expressed in Escherichia coli BL21 (DE3) cells at 50 uM at 1:1 molar ratio after 3 hrs by (+) HRESIMS analysis.
A short description of assay [2]: Anti-prion activity against [PSI+] protein in Saccharomyces cerevisiae STRg6 measured after 96 hrs by fluorimetry analysis.
Assay [3] deals with Alpha-synuclein (Homo sapiens) (UniProt P37840). Briefly: Inhibition of human alpha-synuclein aggregation expressed in Escherichia coli BL21 (DE3) cells at 400 uM at 5:1 molar ratio after 72 hrs by ThT fluorescence assay relative to control. Also noted: scale not given: the % may be the effect or the level left.

Usually EC50 stands for the concentration giving half of the maximal effect.

Activity calls are given as the source filed them. No cut-off for these calls is given here.

Turning to `CC(CCC[C@@H](C)[C@H]1CC[C@@H]2[C@]1(C)CC[C@@H]1[C@@]3(C)CC[C@@H](O)C[C@@H]3C[C@@H](O)[C@]12O)COS(=O)(=O)O` (some centres undefined), the outcome (in the assay on Saccharomyces cerevisiae; in assay [1]) was Active. This molecule also came in with a 50% effective concentration (EC50) in assay [2] of 12.7 µM. In addition, in assay [3], the Activity was determined as 68%.
With `O=C(O[C@@H]1Cc2c(O)cc(O)cc2O[C@@H]1c1cc(O)c(O)c(O)c1)c1cc(O)c(O)c(O)c1`, the Activity in assay [3] was determined as 96.3%.
In assay [2], `CC(/C=C/[C@@H](C)[C@H]1CC[C@@H]2[C@]1(C)CC[C@@H]1[C@@]3(C)CC[C@@H](O)C[C@@H]3C[C@@H](O)[C@]12O)C(C)COS(=O)(=O)O` (some centres undefined) had an EC50 of 9.8 µM.
Molecule `C[C@@H](C/C=C/[C@@H](C)[C@H]1CC[C@@H]2[C@]1(C)CC[C@@H]1[C@@]3(C)CC[C@@H](O)C[C@@H]3C[C@@H](O)[C@]12O)COS(=O)(=O)O` (relative stereo) returned an EC50 in assay [2] of 13.8 µM.
Turning to `N=C(N)N/N=C/c1c(Cl)cccc1Cl` [GUANABENZ], the result with Saccharomyces cerevisiae was Active. The molecule also returned an EC50 in assay [2] of 26 µM.
